US20240165188A1, “Method for the treatment of microbial overgrowth, imbalance and infections” (TRINUTRA LTD., priority 2021, published 2024)

Test system: C. albicans (Robin) Berkhout (ATCC catalogue no. 96901), fluconazole resistant
Assay: Disc diffusion assay, inhibition of Candida albicans growth on agar
Format: cell-based
Conditions: C. albicans fluconazole-resistant strain; undiluted (100%); 24 hours; FIG. 2
Protocol: A frozen stock of C. albicans (Robin) Berkhout (ATCC catalogue no. 96901) was thawed and incubated at 25 degrees Celsius for 72 hours in 200 YM medium. Following dilution 1:10, the culture was incubated for a further 24 hours. Following further dilution (1:10), the culture is grown for an additional 3 hours prior to use.
Antibiotic assay discs (Whatman discs, supplied by Sigma-Aldrich) were prepared in advance by means of saturating them with the test solutions and controls.
Agar plates were prepared and labelled as described in Example 1, above. The plates were then incubated at 25° C. and the area of inhibited fungal growth was measured and photographed after 24 hours.
• 1. Black seed oil 3% thymoquinone (TQ), 2% FFA. • 2. Black seed oil 3% thymoquinone (TQ), 10% FFA. • 3. Black seed oil 0.5% thymoquinone (TQ), 2% FFA. • 4. Black seed oil 0.5% thymoquinone (TQ), 10% FFA. • 5. Black seed oil 1.8% thymoquinone (TQ), 2% FFA formulation
• 6. Negative control (empty discs) • 7. Positive control I (0.05% zinc pyrithione). • 8. Positive control II (100 micrograms fluconazole)
All concentrations given above are w/w concentrations. The various black seed oil preparations were cold-pressed Nigella sativa oils obtained from NS Oils Ltd. (Kibbutz Sa'ad, Israel).
Each of the 5 test substances (at a concentration of 100%, i.e., undiluted) was assayed for antifungal activity, as described above.

Compound: OC(Cn1cncn1)(Cn1cncn1)c1ccc(F)cc1F [fluconazole]
- size of the fungal inhibition zones (antifungal effect): lack of inhibitory activity
